Assay results from PubChem BioAssay (NCI).
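Each compound was tested at five concentrations against cells in 96-well plates for 48 hours. Here, GI50 denotes the concentration required for 50% inhibition of growth. TGI marks complete inhibition of growth.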 Where a SMILES comes first, the peptide text is derived from it. [ ]: non-standard residue; d: D form. ξ: configuration not given here. ξLac(3-iPr) = CC(C)CC(O)C(=O)O; NMeV = CN[CH](C(=O)O)C(C)C; NMeA = CN[CH](C)C(=O)O; βAla = NCCC(=O)O

How the values were obtained:
Experiment in all cases: growth of human tumour cells (NCI), 48 h
CAKI-1 renal = tested on: CAKI-1 renal
RXF 393 renal = tested on: RXF 393 renal
NCI-H522 lung = tested on: NCI-H522 lung
NCI/ADR-RES ovarian = tested on: NCI/ADR-RES ovarian
MDA-MB-435 = tested on: MDA-MB-435
T-47D breast = tested on: T-47D breast
MDA-MB-231 breast = tested on: MDA-MB-231 breast
SNB-75 CNS = tested on: SNB-75 CNS
SF-295 CNS = tested on: SF-295 CNS
LOX IMVI melanoma = tested on: LOX IMVI melanoma
PC-3 prostate = tested on: PC-3 prostate
DU-145 prostate = tested on: DU-145 prostate
786-0 renal = tested on: 786-0 renal
A498 renal = tested on: A498 renal
SNB-19 CNS = tested on: SNB-19 CNS

Structure (SMILES) | TGI (CAKI-1 renal) | TGI (RXF 393 renal) | TGI (NCI-H522 lung) | TGI (NCI/ADR-RES ovarian) | TGI (MDA-MB-435) | TGI (T-47D breast) | TGI (MDA-MB-231 breast) | TGI (SNB-75 CNS) | TGI (SF-295 CNS) | TGI (LOX IMVI melanoma) | TGI (PC-3 prostate) | TGI (DU-145 prostate) | TGI (786-0 renal) | TGI (A498 renal) | TGI (SNB-19 CNS) | GI50 (MDA-MB-231 breast) | GI50 (SNB-75 CNS) | GI50 (A498 renal) | GI50 (LOX IMVI melanoma)
O=C(c1ccccc1)C1C(c2ccccc2)N1S(=O)(=O)c1ccccc1 (centres undefined) | > 100 µM | > 100 µM | > 100 µM | > 100 µM | > 100 µM | > 100 µM | > 100 µM | > 100 µM | > 100 µM | > 100 µM | > 100 µM | > 100 µM |  |  |  |  |  |  | 
Cc1ccc2c(ccc(/C=C\c3cc(C)c4cccnc4c3O)[n+]2C)c1 | 25.5 µM |  | 27.8 µM |  |  |  |  |  | 26.9 µM | 56.2 µM |  |  | > 100 µM | 33.9 µM | 35 µM |  |  |  | 
COc1cc(C(=O)CC2OC(=O)C(Cl)=C2Cl)ccc1Cl (centres undefined) | > 100 µM | > 100 µM | > 100 µM |  |  |  |  | > 100 µM | > 100 µM | > 100 µM |  |  |  | > 100 µM | > 100 µM |  |  |  | 
C[N+](C)(C)c1cc2c(nn1)Nc1ccccc1S2 | > 100 µM | > 100 µM | 52.8 µM | 56.9 µM | 51.9 µM | 28.2 µM | 67 µM |  | 49.7 µM | 43.8 µM | 47.9 µM | > 100 µM | > 100 µM | 87.8 µM | > 100 µM |  |  |  | 
C[C@]12CC[C@@H]3c4ccc(O)cc4CC[C@H]3[C@@H]1CC[C@@H]2OC(=O)CCc1ccccc1 | 37.7 µM | 33.6 µM | 32.9 µM | 33.8 µM | 45.1 µM | 37 µM | 33.4 µM | 33.8 µM | 42 µM | 39.4 µM | 34.4 µM | 43 µM | > 100 µM | 32.6 µM | 37.7 µM |  |  |  | 
CC1(C)N=C(N)N=C(N)N1c1cccc(C(=O)Nc2ccc(S(=O)(=O)F)cc2)c1 | > 100 µM | > 100 µM | > 100 µM | > 100 µM | > 100 µM | > 100 µM | > 100 µM | > 100 µM | > 100 µM | > 100 µM | > 100 µM | > 100 µM | > 100 µM | > 100 µM | > 100 µM |  |  |  | 
Cc1nc2[nH]ncn2c(=O)c1CCCl | > 10 µM | > 10 µM | > 10 µM | > 10 µM | > 10 µM | > 10 µM | > 10 µM | > 10 µM |  | > 10 µM | > 10 µM | > 10 µM |  | > 10 µM | > 10 µM |  |  |  | 
CCC(C)C1NC(=O)C2CCCN2C(=O)C(CC(C)C)OC(=O)CCNC(=O)C(C)N(C)C(=O)C(C(C)C)N(C)C1=O (centres undefined) (cyclo([ξLac(3-iPr)]PI[NMeV][NMeA][βAla]); configuration not given here) | > 86.2 µM | 98 µM | 60.2 µM | > 86.9 µM | 13.5 µM | 38.9 µM | > 100 µM | > 86.8 µM | 8.05 µM |  | > 100 µM | > 89.2 µM | 17.6 µM | 81.8 µM | > 100 µM |  |  |  | 
O=C1C=CC(=O)c2c(O)c(Br)c(Br)c(O)c21 |  | 6.13 µM |  | 58.7 µM | 8.19 µM | 6.04 µM | 7.43 µM | 38.4 µM | 36.9 µM |  | 29.6 µM | 25.9 µM | 3.32 µM | 36.9 µM | 33.1 µM |  |  |  | 
N#C/C(=C\c1ccc(Br)cc1)n1nnc2cc(Cl)c(Cl)cc21 |  |  |  |  |  |  | 8 µM | 8.26 µM |  | 3.3 µM |  |  |  | 4.51 µM |  | 2.31 µM | 1.73 µM | 1.78 µM | 1.71 µM
Clc1ccc(C[P+]2(c3ccccc3)CCCCC2)cc1 |  | > 100 µM | > 100 µM |  |  |  |  | > 100 µM | > 100 µM | > 100 µM |  |  | > 100 µM | > 100 µM | > 100 µM |  |  |  | 
O=C1c2ccccc2C(=O)c2c(Nc3cc4c5c(ccc6c7ccc8c9c(cc(Nc%10cccc%11c%10C(=O)c%10ccccc%10C%11=O)c(c3c56)c97)-c3ccccc3C8=O)C(=O)c3ccccc3-4)cccc21 | > 100 µM | > 100 µM | > 100 µM | > 100 µM | > 100 µM | > 100 µM | > 100 µM | 41.5 µM | > 100 µM | > 100 µM | > 100 µM | > 100 µM | > 100 µM | 65.1 µM | > 100 µM |  |  |  | 
CCN(CC)c1ccc2nc3ccc(N=Nc4c(O)ccc5ccccc45)cc3[n+](-c3ccccc3)c2c1 | > 100 µM | > 100 µM | > 100 µM | > 100 µM | > 100 µM | > 100 µM | > 100 µM | > 100 µM | > 100 µM |  | > 100 µM | > 100 µM | > 100 µM |  | > 100 µM |  |  |  | 
